Test results: patent US9221809B2 (MERCK SHARP & DOHME CORP., priority 2011, dated 2015)
pIC50: −log10 of the molar value. Where a name gives a salt, the structure may show the parent alone. Read-outs that look alike come from different tables or passages of the source.

Target: IRAK4 (Homo sapiens (Human), UniProt Q9NWZ3)
Assay: IRAK4 kinase activity, IMAP fluorescence polarization assay
Assay type: biochemical
Conditions: 100 μM ATP
How it was run: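 Fluorescence polarization (IMAP nanoparticle binding of phosphopeptide) reports activity after a 30 min, 25 °C reaction. Conditions: 100 μM ATP, 0.5 nM GST-IRAK4, 100 nM fluorescent peptide, 10 mM Tris pH 7.2, 1 mM MgCl2, 1 mM DTT, 0.01% Tween 20.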

[1] = 0.5 nM GST tagged IRAK4, read-out: IRAK4 IC50
[2] = unit inferred, read-out: IRAK4 IC50

Chain of IRAK4 (Q9NWZ3 whole entry): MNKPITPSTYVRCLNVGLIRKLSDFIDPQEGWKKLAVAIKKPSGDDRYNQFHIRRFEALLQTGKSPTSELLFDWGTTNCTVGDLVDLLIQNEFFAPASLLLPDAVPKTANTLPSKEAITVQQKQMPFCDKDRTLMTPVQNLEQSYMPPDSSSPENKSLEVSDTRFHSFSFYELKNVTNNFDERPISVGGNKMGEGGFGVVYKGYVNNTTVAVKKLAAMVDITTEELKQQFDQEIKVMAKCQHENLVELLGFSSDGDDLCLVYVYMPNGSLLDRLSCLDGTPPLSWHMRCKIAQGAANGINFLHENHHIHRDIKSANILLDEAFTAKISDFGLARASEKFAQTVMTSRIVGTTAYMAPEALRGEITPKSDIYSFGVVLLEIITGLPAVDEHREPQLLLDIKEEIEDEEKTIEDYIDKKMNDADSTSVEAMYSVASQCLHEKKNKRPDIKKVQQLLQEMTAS

Row | pIC50 [1] | pIC50 (read-out: IC50) | SMILES | further results
1 | 6.49 |  | O=c1[nH]c(Nc2ccccc2)nc(N[C@@H]2C[C@H](CO)[C@@H](O)[C@H]2O)c1-c1nc2ccccc2s1 [Example 53, 5-(Benzo[d]thiazol-2-yl)-6-((1R,2S,3R,4R)-2,3-dihydroxy-4-(hydroxymethyl)cyclopentylamino)-2-(phenylamino)pyrimidin-4(3H)-one.HCl] | 
2 |  |  | O=c1[nH]c(N2CC3CC2CN3)nc(N[C@@H]2CCCNC2)c1-c1ccc2ccccc2n1 (stereo partly drawn) [Example 194, 2-(2,5-diazabicyclo[2.2.1]heptan-2-yl)-6-((R)-piperidin-3-ylamino)-5-(quinolin-2-yl)pyrimidin-4(3H)-one] | pIC50 (read-out: IRAK4 IC50): 6.77
3 |  |  | CS(=O)(=O)c1ccc(N2CCN(c3nc(N[C@@H]4CCCNC4)c(-c4nc5ccccc5s4)c(=O)[nH]3)CC2)c(Cl)c1 [Example 147, (R)-5-(benzo[d]thiazol-2-yl)-2-(4-(2-chloro-4-(methylsulfonyl)phenyl)piperazin-1-yl)-6-(piperidin-3-ylamino)pyrimidin-4(3H)-one] | pIC50 (read-out: IRAK4 IC50): 7.96
4 |  | 6.52 | O=c1[nH]c(N2CCOCC2)nc(NC2CNC2)c1-c1nc2ccccc2s1 [Example 253, 6-[(azetidin-3-yl)amino]-5-(1,3-benzothiazol-2-yl)-2-(morpholin-4-yl)-3,4-dihydro-pyrimidin-4-one] | 
5 |  | 7.60 | O=c1[nH]c(N2CC3(COC3)C2)nc(N[C@@H]2CCCNC2)c1-c1nc2ccccc2s1 [Example 317, 5-(1,3-benzothiazol-2-yl)-2-[2-oxa-6-azaspiro[3.3]heptan-6-yl]-6-[[(3R)-piperidin-3-yl]amino]-3,4-dihydropyrimidin-4-one] | 
6 |  | 7.68 | COc1ccc(N2CCC3(CCN(c4nc(N[C@@H]5CCCNC5)c(-c5nc6ccccc6s5)c(=O)[nH]4)C3)C2)cc1 (stereo partly drawn) [Example 330, 5-(1,3-benzothiazol-2-yl)-2-[7-(4-methoxyphenyl)-2,7-diazaspiro[4.4]nonan-2-yl]-6-[[(3R)-piperidin-3-yl]amino]-3,4-dihydropyrimidin-4-one] | 
7 | 6.24 |  | O=c1[nH]c(NC2CCOCC2)nc(N[C@@H]2C[C@H](CO)[C@@H](O)[C@H]2O)c1-c1nc2ccccc2s1 [Example 8, 5-(Benzo[d]thiazol-2-yl)-6-((1R,2S,3R,4R)-2,3-dihydroxy-4-(hydroxymethyl)cyclopentylamino)-2-(tetrahydro-2H-pyran-4-ylamino)pyrimidin-4(3H)-one.HCl] | 
8 |  |  | O=c1[nH]c(N2CCOCC2)nc(N[C@@H]2CCCNC2)c1-c1ccccn1 [Example 199] | pIC50 (read-out: IRAK4 IC50): 5.32
9 |  | 6.29 | O=c1[nH]c(N2CCOCC2)nc(N[C@@H]2CCCNC2)c1-c1ccc(C2CC2)cn1 [Example 224, (R)-5-(5-cyclopropylpyridin-2-yl)-2-morpholino-6-(piperidin-3-ylamino)pyrimidin-4(3H)-one] | 
10 |  | 6.41 | CN(c1nc(NC2CCCNC2)c(-c2nc3ccccc3s2)c(=O)[nH]1)[C@H]1CC[C@H](O)CC1 (stereo partly drawn) [Example 301, 5-(1,3-benzothiazol-2-yl)-2-[(4-hydroxycyclohexyl)(methyl)amino]-6-[[(3R)-piperidin-3-yl]amino]-3,4-dihydropyrimidin-4-one; trifluoroacetic acid] | 
11 |  |  | O=c1[nH]c(N2CCN(c3cccnc3)CC2)nc(N[C@@H]2CCCNC2)c1-c1nc2ccccc2s1 [Example 138, (R)-5-(benzo[d]thiazol-2-yl)-6-(piperidin-3-ylamino)-2-(4-(pyridin-3-yl)piperazin-1-yl)pyrimidin-4(3H)-one] | pIC50 (read-out: IRAK4 IC50): 8.22
12 |  | 5.70 | O=c1[nH]c(N2CCC2)nc(N[C@@H]2CCCNC2)c1-c1nc2ccccc2s1 [Example 288, (R)-2-(azetidin-1-yl)-5-(benzo[d]thiazol-2-yl)-6-(piperidin-3-ylamino)pyrimidin-4(3H)-one] | 
13 |  | 6.21 | O=c1[nH]c(N2CCOCC2)nc(NC2CCC(O)CC2)c1-c1nc2ccccc2s1 (stereo not drawn) [Example 268, 5-(benzo[d]thiazol-2-yl)-6-(4-hydroxycyclo-hexylamino)-2-morpholinopyrimidin-4(3H)-one] | 
14 |  | 6.74 | O=c1[nH]c(N2CCOCC2)nc(NCCc2ncc[nH]2)c1-c1nc2ccccc2s1 [Example 264, 6-(2-(1H-imidazol-2-yl)ethylamino)-5-(benzo[d]thiazol-2-yl)-2-morpholino-pyrimidin-4(3H)-one] | 
15 |  | 7.09 | O=c1[nH]c(N2CCOCC2)nc(N[C@@H]2CCCNC2)c1-c1csc(-n2cccn2)n1 [Example 217, (R)-5-(2-(1H-pyrazol-1-yl)thiazol-4-yl)-2-morpholino-6-(piperidin-3-ylamino)pyrimidin-4(3H)-one] | 
16 |  | 5.25 | O=c1[nH]c(N2CCOCC2)nc(NC2CCCCC2O)c1-c1nc2ccccc2s1 (stereo not drawn) [Example 269, 5-(benzo[d]thiazol-2-yl)-6-(2-hydroxycyclohexyl-amino)-2-morpholinopyrimidin-4(3H)-one] | 
17 | 6.48 |  | O=c1[nH]c(N2CCOCC2)nc(N[C@@H]2CCCNC2)c1-c1nc2cc(C3CC3)ccc2s1 [Example 346, 5-(5-cyclopropyl-1,3-benzothiazol-2-yl)-2-(morpholin-4-yl)-6-[[(3R)-piperidin-3-yl]amino]-3,4-dihydropyrimidin-4-one trifluoroacetic acid] | 

Row | pIC50 [1] | pIC50 (read-out: IC50) | SMILES | further results
18 | 7.30 |  | Cc1ccc2sc(-c3c(N[C@@H]4CCCNC4)nc(N4CCOCC4)[nH]c3=O)nc2c1 [Example 341, 5-(5-methyl-1,3-benzothiazol-2-yl)-2-(morpholin-4-yl)-6-[[(3R)-piperidin-3-yl]amino]-3,4-dihydropyrimidin-4-one formic acid] | 
19 | 5.29 |  | O=c1[nH]c(N[C@@H]2CCCNC2)nc(N[C@@H]2C[C@H](CO)[C@@H](O)[C@H]2O)c1-c1nc2ccccc2s1 [Example 38, 5-(Benzo[d]thiazol-2-yl)-6-(((1R,2S,3R,4R)-2,3-dihydroxy-4-(hydroxymethyl)cyclopentyl)amino)-2-((R)-piperidin-3-ylamino)pyrimidin-4(3H)-one.HCl] | 
20 |  |  | CN1CCC2(CCN(c3nc(N[C@@H]4C[C@H](CO)[C@@H](O)[C@H]4O)c(-c4nc5ccccc5s4)c(=O)[nH]3)CC2)C1=O [Example 66, 8-(5-(benzo[d]thiazol-2-yl)-4-((1R,2S,3R,4R)-2,3-dihydroxy-4-(hydroxymethyl)cyclopentylamino)-6-oxo-1,6-dihydropyrimidin-2-yl)-2-methyl-2,8-diazaspiro[4.5]decan-1-one] | pIC50 [2]: 8.06
21 | 6.75 |  | O=c1[nH]c(N2CCOCC2)nc(NC2CCNC2)c1-c1nc2ccccc2s1 (stereo not drawn) [Example 85, 5-(Benzo[d]thiazol-2-yl)-2-morpholino-6-(pyrrolidin-3-ylamino)pyrimidin-4(3H)-one.HCl] | 
22 | 5.83 |  | O=c1[nH]c(N[C@@H]2C[C@H](CO)[C@@H](O)[C@H]2O)c(-c2nc3ccccc3s2)c(=O)[nH]1 [Example 7, 5-(Benzo[d]thiazol-2-yl)-6-((1R,2S,3R,4R)-2,3-dihydroxy-4-(hydroxymethyl)cyclopentylamino)pyrimidine-2,4(1H,3H)-dione.HCl] | 
23 |  | 6.55 | CC1CCCCN1c1nc(N[C@@H]2CCCNC2)c(-c2nc3ccccc3s2)c(=O)[nH]1 (stereo partly drawn) [Example 314] | 
24 |  |  | COc1ccc(N2CC3CC2CN3c2nc(N[C@@H]3CCCNC3)c(-c3ccc4ccccc4n3)c(=O)[nH]2)cc1 (stereo partly drawn) [Example 195, 2-(5-(4-methoxyphenyl)-2,5-diazabicyclo[2.2.1]heptan-2-yl)-6-((R)-piperidin-3-ylamino)-5-(quinolin-2-yl)pyrimidin-4(3H)-one] | pIC50 (read-out: IRAK4 IC50): 6.12
25 |  | 6.11 | O=c1[nH]c(N2CCOCC2)nc(NCCN2CCC(O)CC2)c1-c1nc2ccccc2s1 [Example 258, 5-(1,3-benzothiazol-2-yl)-6-[[2-(4-hydroxypiperidin-1-yl)ethyl]amino]-2-(morpholino-4-yl)-3,4-dihydropyrimidin-4-one] | 
26 | 5.65 |  | O=c1[nH]c(NC2CCC2)nc(N[C@@H]2CC[C@@H](O)[C@H]2O)c1-c1nc2ccccc2s1 [Example 48, 5-(Benzo[d]thiazol-2-yl)-2-(cyclobutylamino)-6-((1R,2S,3R)-2,3-dihydroxycyclopentylamino)pyrimidin-4(3H)-one.HCl] | 
27 |  | 7.64 | O=c1[nH]c(N2CCC3(CCN(S(=O)(=O)c4ccccc4)C3)C2)nc(N[C@@H]2CCCNC2)c1-c1nc2ccccc2s1 (stereo partly drawn) [Example 328] | 
28 |  |  | O=c1[nH]c(N2CCN(c3nccs3)CC2)nc(N[C@@H]2CCCNC2)c1-c1nc2ccccc2s1 [Example 149, (R)-5-(benzo[d]thiazol-2-yl)-6-(piperidin-3-ylamino)-2-(4-(thiazol-2-yl)piperazin-1-yl)pyrimidin-4(3H)-one] | pIC50 (read-out: IRAK4 IC50): 7.92
29 |  |  | O=c1[nH]c(N2CCCN(Cc3nccs3)CC2)nc(N[C@@H]2C[C@H](CO)[C@@H](O)[C@H]2O)c1-c1nc2ccccc2s1 [Example 75, 5-(benzo[d]thiazol-2-yl)-6-((1R,2S,3R,4R)-2,3-dihydroxy-4-(hydroxymethyl)cyclopentylamino)-2-(4-(thiazol-2-ylmethyl)-1,4-diazepan-1-yl)pyrimidin-4(3H)-one] | pIC50 [2]: 6.65
30 |  |  | O=c1[nH]c(N2CCN(c3ccccn3)CC2)nc(N[C@@H]2C[C@H](CO)[C@@H](O)[C@H]2O)c1-c1nc2ccccc2s1 [Example 68, 5-(benzo[d]thiazol-2-yl)-6-((1R,2S,3R,4R)-2,3-dihydroxy-4-(hydroxymethyl)cyclopentylamino)-2-(4-(pyridin-2-yl)piperazin-1-yl)pyrimidin-4(3H)-one] | pIC50 [2]: 7.92
31 |  | 5.05 | O=C1C[C@H](Nc2nc(N[C@@H]3CCCNC3)c(-c3nc4ccccc4s3)c(=O)[nH]2)Cc2ccccc2N1 [Example 304] | 
32 | 7.07 |  | O=c1[nH]c(N2CCOCC2)nc(N[C@H]2CNC[C@H](O)C2)c1-c1nc2ccccc2s1 [Example 105, 5-(benzo[d]thiazol-2-yl)-6-(((3R,5R)-5-hydroxypiperidin-3-yl)amino)-2-morpholinopyrimidin-4(3H)-one.HCl] | 
33 | 8.25 |  | O=c1[nH]c(N2CCOCC2)nc(N[C@@H]2C[C@H](CO)[C@@H](O)[C@H]2O)c1-c1nc(-c2ccc(F)cc2)cs1 [Example 58, 6-(((1R,2S,3R,4R)-2,3-Dihydroxy-4-(hydroxymethyl)cyclopentyl)amino)-5-(4-(4-fluorophenyl)thiazol-2-yl)-2-morpholinopyrimidin-4(3H)-one.HCl] | 
